Assay results taken from publication PMC10460844, “Real‐Time Monitoring of Multitarget Antimicrobial Mechanisms of Peptoids Using Label‐Free Imaging with Optical Diffraction Tomography” (Advanced Science, 2023).
≈ marks a conversion by molar mass, not a printed value. Structures can show the parent of a compound that is named as a salt. Where two headings read alike, the source gives them in different places. Square brackets hold non-standard residues; d marks the D form. Peptide text beside a SMILES is read from it. Gly(N(CH2)2(3-indolyl)) = O=C(O)CNCCc1c[nH]c2ccccc12; Nspe = C[C@H](NCC(=O)O)c1ccccc1; Nphe = O=C(O)CNCc1ccccc1; Nlys = NCCCCNCC(=O)O

Tests used:
rat erythrocytes = experiment: Hemolysis assay; type: cell-based
Method in brief: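 Washed Sprague-Dawley rat erythrocytes (10% suspension in PBS pH 7.4) mixed with peptoids (0–100 µM), 60 min at 37 °C; supernatant A540 expressed as % of 1% Triton X-100 lysis. HC10/HC50 are concentrations giving 10%/50% hemolysis; Hmax is hemolysis at 100 µM.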

S. aureus ATCC 25923 = type: cell-based, Staphylococcus aureus
Protocol: (§1) The antibacterial activity of the peptoids was evaluated against gram‐positive (Staphylococcus aureus, ATCC 25 923) and gram‐negative (Escherichia coli, ATCC 25 922) bacteria. […] The MIC of each peptoid was determined using a broth dilution assay. For each assay, the primary culture of either S. aureus or E. coli was grown overnight in cation‐adjusted Mueller Hinton broth 2 (MHB2) media at 37 °C with shaking. A secondary culture was prepared the next day, grown for 3–4 h, and then diluted in MHB2 media with a final concentration of 0.001% acetic acid and 0.02% bovine serum albumin to obtain a calculated optical density (OD) of 0.001. This corresponded to ≈2–5 × 10^5 colony‐forming units (CFU mL^−1) of bacteria. Using 96‐well polypropylene plates (Eppendorf, Hamburg, Germany), 100 µL of 2–5 × 10^5 CFU mL^−1 bacteria were added in triplicate for each peptoid. Each peptoid was assayed at six different concentrations in two‐fold serial dilutions. The maximum peptoid concentration was 25 µM. […] The MIC value determination was performed in triplicate. The MIC was defined as the lowest peptoid concentration that prevented turbidity during visual inspection.

E. coli ATCC 25922 = type: cell-based, Escherichia coli
Protocol: as §1

[1] = Analytical reversed-phase HPLC elution (hydrophobicity); type: physicochemical; settings: Table S1; analytical RP-HPLC, SunFire C18, water/ACN + 0.1% TFA, 5 to 100% B linear over 30 min, 1 mL/min, UV 220 nm; approximate comparison of hydrophobicity
Method in brief: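 Analytical reversed-phase HPLC on a C18 column (4.6 × 250 mm, 5 μm) at 1 mL/min, water/acetonitrile each with 0.1% TFA. Held at 5% B for 2 min, then linear to 100% B over 30 min and held 5 min, with UV detection at 220 nm; retention time (tR) serves as hydrophobicity measure.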

[2] = Table S2, broth dilution, MHB2, 37 °C 24 h, max 25 µM, mean of triplicate

Row | Structure (SMILES) | Hmax (100 µM) (rat erythrocytes) [%] | HC10 (rat erythrocytes; red cells of rat) [µM] | HC50 (rat erythrocytes; red cells of rat) [µM] | MIC S. aureus ATCC25923 (S. aureus ATCC 25923; ATCC 25923) [µM] | MIC E. coli ATCC25922 (E. coli ATCC 25922; ATCC 25922) [µM] | HPLC elution [1] [% MeCN] | H max (100 µM) (rat erythrocytes) [%] | HC10 (rat erythrocytes; pH 7.4) [µM] | HC50 (rat erythrocytes; pH 7.4) [µM] | MIC S. aureus ATCC25923 (S. aureus ATCC 25923; [2]) [µM] | MIC E. coli ATCC25922 (E. coli ATCC 25922; [2]) [µM]
1 | C[C@@H](c1ccccc1)N(CC(N)=O)C(=O)CN(C(=O)CN(CCCCN)C(=O)CN(C(=O)CN(CCc1c[nH]c2ccccc12)C(=O)CN(CCCCN)C(=O)CN(CCc1c[nH]c2ccccc12)C(=O)CN(C(=O)CN(CCCCN)C(=O)CN(C(=O)CN(C(=O)CNCCCCN)[C@@H](C)c1ccccc1)[C@@H](C)c1ccccc1)[C@@H](C)c1ccccc1)[C@@H](C)c1ccccc1)[C@@H](C)c1ccccc1 [15-HCl] | 33.4±9.7 | 50.4 | > 100 | 3.1 | 6.3 |  |  |  |  |  | 
2 | C[C@@H](c1ccccc1)N(CC(=O)N(CCCCN)CC(=O)N(CCc1c[nH]c2ccccc12)CC(=O)N(CCc1c[nH]c2ccccc12)CC(N)=O)C(=O)CN(CCCCN)C(=O)CN(CCCCN)C(=O)CN(C(=O)CN(C(=O)CN(CCCCN)C(=O)CN(C(=O)CN(C(=O)CNCCCCN)[C@@H](C)c1ccccc1)[C@@H](C)c1ccccc1)[C@@H](C)c1ccccc1)[C@@H](C)c1ccccc1 [29-AcOH] (H-[Nlys][Nspe][Nspe][Nlys][Nspe][Nspe][Nlys][Nlys][Nspe][Nlys][Gly(N(CH2)2(3-indolyl))][Gly(N(CH2)2(3-indolyl))]-NH2) | 5.2±0.2 | > 100 | > 100 | 12.5 (≈ 23.3 µg/mL) | 6.3 (≈ 11.7 µg/mL) |  |  |  |  |  | 
3 | C[C@@H](c1ccccc1)N(CC(=O)N(CCCCN)CC(=O)N(CCc1c[nH]c2ccccc12)CC(=O)N(CCc1c[nH]c2ccccc12)CC(N)=O)C(=O)CN(CCCCN)C(=O)CN(CCCCN)C(=O)CN(C(=O)CN(C(=O)CN(CCCCN)C(=O)CN(C(=O)CN(C(=O)CNCCCCN)[C@@H](C)c1ccccc1)[C@@H](C)c1ccccc1)[C@@H](C)c1ccccc1)[C@@H](C)c1ccccc1 [29-HCl] (H-[Nlys][Nspe][Nspe][Nlys][Nspe][Nspe][Nlys][Nlys][Nspe][Nlys][Gly(N(CH2)2(3-indolyl))][Gly(N(CH2)2(3-indolyl))]-NH2) | 4.3±0.3 | > 100 | > 100 | 12.5 | 12.5 |  |  |  |  |  | 
4 | C[C@@H](c1ccccc1)N(CC(N)=O)C(=O)CN(CCCCN)C(=O)CN(CCCCN)C(=O)CN(C(=O)CN(C(=O)CN(CCCCN)C(=O)CN(C(=O)CN(C(=O)CN(CCCCN)C(=O)CN(CCc1c[nH]c2ccccc12)C(=O)CN(CCc1c[nH]c2ccccc12)C(=O)CNCCCCN)[C@@H](C)c1ccccc1)[C@@H](C)c1ccccc1)[C@@H](C)c1ccccc1)[C@@H](C)c1ccccc1 [32-AcOH] | 13.8±1.1 | 83.0 | > 100 | 6.3 (≈ 11.7 µg/mL) | 6.3 (≈ 11.7 µg/mL) |  |  |  |  |  | 
5 | C[C@@H](c1ccccc1)N(CC(N)=O)C(=O)CN(CCCCN)C(=O)CN(CCCCN)C(=O)CN(C(=O)CN(C(=O)CN(CCCCN)C(=O)CN(C(=O)CN(C(=O)CN(CCCCN)C(=O)CN(CCc1c[nH]c2ccccc12)C(=O)CN(CCc1c[nH]c2ccccc12)C(=O)CNCCCCN)[C@@H](C)c1ccccc1)[C@@H](C)c1ccccc1)[C@@H](C)c1ccccc1)[C@@H](C)c1ccccc1 [32-HCl] | 8.7±0.6 | > 100 | > 100 | 6.3 | 6.3 |  |  |  |  |  | 
6 | C[C@@H](c1ccccc1)N(CC(=O)N(CCCCN)CC(=O)N(CC(=O)N(CC(=O)N(CCCCN)CC(=O)N(CC(=O)N(CC(=O)N(CCCCN)CC(N)=O)[C@@H](C)c1ccccc1)[C@@H](C)c1ccccc1)[C@@H](C)c1ccccc1)[C@@H](C)c1ccccc1)C(=O)CN(C(=O)CN(CCCCN)C(=O)CN(CCc1c[nH]c2ccccc12)C(=O)CNCCc1c[nH]c2ccccc12)[C@@H](C)c1ccccc1 [37-AcOH] (H-[Gly(N(CH2)2(3-indolyl))][Gly(N(CH2)2(3-indolyl))][Nlys][Nspe][Nspe][Nlys][Nspe][Nspe][Nlys][Nspe][Nspe][Nlys]-NH2) | 98.9±8.0 | 12.5 | 26.0 | 1.6 (≈ 3.04 µg/mL) | 6.3 (≈ 12 µg/mL) |  |  |  |  |  | 
7 | C[C@@H](c1ccccc1)N(CC(=O)N(CCCCN)CC(=O)N(CC(=O)N(CC(=O)N(CCCCN)CC(=O)N(CC(=O)N(CC(=O)N(CCCCN)CC(N)=O)[C@@H](C)c1ccccc1)[C@@H](C)c1ccccc1)[C@@H](C)c1ccccc1)[C@@H](C)c1ccccc1)C(=O)CN(C(=O)CN(CCCCN)C(=O)CN(CCc1c[nH]c2ccccc12)C(=O)CNCCc1c[nH]c2ccccc12)[C@@H](C)c1ccccc1 [37-HCl] (H-[Gly(N(CH2)2(3-indolyl))][Gly(N(CH2)2(3-indolyl))][Nlys][Nspe][Nspe][Nlys][Nspe][Nspe][Nlys][Nspe][Nspe][Nlys]-NH2) | 86.6±5.7 | 14.4 | 56.5 | 3.1 | 6.3 |  |  |  |  |  | 
8 | C[C@@H](c1ccccc1)N(CC(=O)N(CCCCN)CC(=O)N(CC(=O)N(CC(N)=O)Cc1ccccc1)Cc1ccccc1)C(=O)CN(CCCCN)C(=O)CN(CCCCN)C(=O)CN(C(=O)CN(C(=O)CN(CCCCN)C(=O)CN(C(=O)CN(C(=O)CNCCCCN)[C@@H](C)c1ccccc1)[C@@H](C)c1ccccc1)[C@@H](C)c1ccccc1)[C@@H](C)c1ccccc1 [peptoid 45] (H-[Nlys][Nspe][Nspe][Nlys][Nspe][Nspe][Nlys][Nlys][Nspe][Nlys][Nphe][Nphe]-NH2) | 4.5±0.2 |  |  |  |  | 47.3 | 4.5 ± 0.2 | > 100 | > 100 | 25 (≈ 44 µg/mL) | > 25
